From patent US20110098325A1, “PYRIDINE BENZAMIDES AND PYRAZINE BENZAMIDES USED AS PKD INHIBITORS” (CANCER RESEARCH TECHNOLOGY LIMITED, priority 2006, published 2011)

Molecular target: T1, Murine PKD1 kinase domain (Mus musculus, UniProt Q62101)
T1 construct: hexahistidine (pFastBac HTb leader) (N); made in house; host or cells: Sf9 insect cells, baculovirus (Bac-to-Bac HT, pFastBac HTb)
T1 sequence (Q62101 with tags, fused parts or gaps R683W): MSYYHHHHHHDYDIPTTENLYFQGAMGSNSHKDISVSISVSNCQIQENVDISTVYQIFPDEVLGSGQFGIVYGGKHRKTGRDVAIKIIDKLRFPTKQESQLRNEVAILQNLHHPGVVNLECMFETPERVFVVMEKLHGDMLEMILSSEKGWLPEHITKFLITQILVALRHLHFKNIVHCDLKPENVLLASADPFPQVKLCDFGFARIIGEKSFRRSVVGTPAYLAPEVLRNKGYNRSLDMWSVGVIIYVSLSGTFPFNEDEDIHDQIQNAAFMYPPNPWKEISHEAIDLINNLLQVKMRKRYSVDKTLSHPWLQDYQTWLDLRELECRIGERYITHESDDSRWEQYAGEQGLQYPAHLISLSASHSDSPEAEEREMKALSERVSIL
Experiment: PKD1 (Murine Kinase Domain) Enzyme Activity Assay (IMAP fluorescence polarisation)
Format: biochemical
Details: 10 μM ATP, 60 minutes, room temperature
Text: The DNA sequence corresponding to murine PKD1 (see FIG. 1) was inserted into pFastBAc Htb (Invitrogen, USA) at BamH1 and EcoR1 sites using standard molecular biology techniques.
The PKD1 described above was expressed as a hexahistidine tagged protein construct using a commercially available baculoviral expression system that induces protein production in insect cell culture (Bac-to-Bac® HT Baculovirus Expression System, Invitrogen). Protein was typically expressed by inoculating 1 L of sf9 cells with a genetically modified baculovirus containing the gene for the kinase domain of PKD1. Sf9 cells were obtained from ICR Ltd.
Purification of PKD1 was achieved by standard chromatographic procedures. Capture from crude centrifuged lysed cell supernatant was achieved using metal affinity chromatography (GE Healthcare Life Sciences, HiTrap Chelating chromatography column), and fractions showing PKD1 (as assessed by gel electrophoresis and western blot) were further purified by a single polish purification step performed using a mono Q anion exchange chromatography system (GE Healthcare Life Sciences, HiTrap HP Q column). […] This protocol describes the method for screening compounds as inhibitors of Protein Kinase D activity in a 384 well microplate format fluorescence polarisation IMAP assay performed using the Biomek FX.
Kinase Enzyme: Murine PKD1 kinase domain at ˜100 μg/mL, was purified from baculovirus (as described above), obtained from aliquots stored at −70° C. PKD was prepared with a final concentration of 0.1 μg/mL by diluting 1:300 in Reaction Buffer (30 μL per 9 mL-5 mL per plate with an additional 4 mL dead volume) and vortexing prior to use. It was necessary to check this concentration regularly in case of enzyme degradation.
(also known as MAPKAP K2 substrate) was obtained from Molecular Devices (Product code R7127). It was used at 300 nM by diluting 20 μM stock 1:66 in Kinase/Reaction Buffer (135 μL per 9 mL; 75 μL per 5 mL Reaction Buffer for blank wells requiring <1 mL per place with an additional 4 mL dead volume).
A 1 mM ATP stock in Reaction Buffer was prepared from a 10 mM stock in 20 mM NaOH and stored as aliquots at −70° C. It was used at 40 μM by diluting 1 mM stock 1:25 in Reaction Buffer (240 μL per 6 mL-2 mL per plate with an additional 4 mL dead volume) and vortexing prior to use.
IMAP Reagents: IMAP Binding Reagent (product code R7207) and Binding Buffer (product code R7208) were obtained from Molecular Devices and stored at +4° C. The beads were gently re-suspended before diluting by 1:400 in buffer (Binding Buffer is supplied as a 5× stock and so was diluted with water prior to use) and then vortexing before addition to wells. 16 mL water with 4 mL Binding Buffer and 50 μL Binding Reagent were used per plate (17 mL per plate with an additional 3 mL dead volume).
13 μL Substrate in Reaction Buffer was added to ‘blank’ wells to give 200 nM reaction concentration. […] 2 μL 10% DMSO/water was added to ‘blank’ and ‘control’ wells. 5 μL ATP in Reaction Buffer was added to all wells to give 10 μM reaction concentration. The reaction mixture was then incubated at room temperature for 60 minutes. The incubation period was followed by the addition of 40 μL IMAP Binding Reagent in Binding Buffer to all wells. The reaction was then further incubated at room temperature for […].
Percentage inhibition was calculated based on activity of the test sample minus the average values in the blank wells relative to the average values measured in control wells minus the average values in the blank wells.
IC50 values were calculated from 10 point dose sigmoid ‘dose-response’ curves using Xlfit software (IDBS inc, USA). Data were fitted to a 4 parameter logistic model/sigmoidal dose response:
where: A=fit minimum (locked to 0); B=fit maximum (locked to 100); C=fit midpoint (pre-fit to 1); D=slope at linear portion of curve, hillslope (pre-fit to 0.1)

IC50 [nM] | SMILES
1000 to 10000 | CN(C)CCNC(=O)c1cccc(-c2cnc(N)c(-c3cccc4cnccc34)c2)c1 [Y-018, 3-(6-Amino-5-isoquinolin-5-yl-pyridin-3-yl)-N-(2-dimethylamino-ethyl)-benzamide]
< 1000 | NC(=O)c1cccc(-c2cnc(N)c(-c3ccoc3)c2)c1 [Y-016, 3-(6-Amino-5-furan-3-yl-pyridin-3-yl)-benzamide]
< 1000 | CN(C)CCNC(=O)c1cccc(-c2cnc(N)c(-c3ccc4nccnc4c3)c2)c1 [Y-091, 3-(6-Amino-5-quinoxalin-6-yl-pyridin-3-yl)-N-(2-dimethylamino-ethyl)-benzamide]
< 1000 | CNc1ncc(-c2cccc(C(=O)NCCN(C)C)c2)cc1-c1cccc(OC)c1 [Y-074, N-(2-Dimethylamino-ethyl)-3-[5-(3-methoxy-phenyl)-6-methylamino-pyridin-3-yl]-benzamide]
< 1000 | COc1cccc(-c2cc(-c3cccc(C(=O)NCCN(C)C)c3)cnc2N)c1 [Y-048, 3-[6-Amino-5-(3-methoxy-phenyl)-pyridin-3-yl]-N-(2-dimethylamino-ethyl)-benzamide]
< 1000 | COc1cc(-c2nc(-c3cccc(C(=O)NCCN(C)C)c3)cnc2N)ccn1 [X-024, 3-[5-Amino-6-(2-methoxy-pyridin-4-yl)-pyrazin-2-yl]-N-(2-dimethylamino-ethyl)-benzamide]
1000 to 10000 | COc1ccc(-c2cc(-c3cccc(C(=O)NCCN(C)C)c3)cnc2N)cn1 [Y-008, 3-(2-Amino-6′-methoxy-[3,3′]bipyridinyl-5-yl)-N-(2-dimethylamino-ethyl)-benzamide]
< 1000 | CN(C)CCNC(=O)c1cccc(-c2cnc(N)c(-c3ccc(F)cc3)c2)c1 [Y-058, 3-[6-Amino-5-(4-fluoro-phenyl)-pyridin-3-yl]-N-(2-dimethylamino-ethyl)-benzamide]
< 1000 | CN(C)CCNC(=O)c1cccc(-c2cnc(N)c(-c3cccc(Oc4ccccc4)c3)c2)c1 [Y-049, 3-[6-Amino-5-(3-phenoxy-phenyl)-pyridin-3-yl]-N-(2-dimethylamino-ethyl)-benzamide]
< 1000 | CN(C)CCNC(=O)c1cccc(-c2cnc(N)c(-c3ccc(Cl)c(F)c3)c2)c1 [Y-052, 3-[6-Amino-5-(4-chloro-3-fluoro-phenyl)-pyridin-3-yl]-N-(2-dimethylamino-ethyl)-benzamide]
< 1000 | CN(C)CCNC(=O)c1cccc(-c2cnc(N)c(-c3ccnc(O)c3)c2)c1 [Y-071, 3-(2-Amino-2′-hydroxy-[3,4′]bipyridinyl-5-yl)-N-(2-dimethylamino-ethyl)-benzamide]
1000 to 10000 | CN(C)CCNC(=O)c1cccc(-c2cnc(N)c(-c3ccc(Cl)nc3)c2)c1 [Y-006, 3-(2-Amino-6′-chloro-[3,3′]bipyridinyl-5-yl)-N-(2-dimethylamino-ethyl)-benzamide]
< 1000 | COc1ccc(-c2cc(-c3cccc(C(=O)NCCN(C)C)c3)cnc2N)cc1 [Y-063, 3-[6-Amino-5-(4-methoxy-phenyl)-pyridin-3-yl]-N-(2-dimethylamino-ethyl)-benzamide]
1000 to 10000 | COc1cc(-c2cncc(-c3cccc(C(=O)N4CCNCC4)c3)n2)ccc1O [X-010, {3-[6-(4-Hydroxy-3-methoxy-phenyl)-pyrazin-2-yl]-phenyl}-piperazin-1-yl-methanone]
< 1000 | CN(C)CCNC(=O)c1cccc(-c2cnc(N)c(-c3cccc(-c4ccccc4)c3)c2)c1 [Y-013, 3-(6-Amino-5-biphenyl-3-yl-pyridin-3-yl)-N-(2-dimethylamino-ethyl)-benzamide]
< 1000 | CN(C)CCNC(=O)c1cccc(-c2cnc(N)c(-c3ccc(C(=O)c4ccccc4)cc3)c2)c1 [Y-070, 3-[6-Amino-5-(4-benzoyl-phenyl)-pyridin-3-yl]-N-(2-dimethylamino-ethyl)-benzamide]
< 1000 | CN(C)CCNC(=O)c1cccc(-c2cnc(N)c(-c3ccc(OCc4ccccc4)cc3)c2)c1 [Y-051, 3-[6-Amino-5-(4-benzyloxy-phenyl)-pyridin-3-yl]-N-(2-dimethylamino-ethyl)-benzamide]
